Source: PubChem BioAssay (NCI)
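The concentration for 50% growth inhibition is given as GI50. At the TGI there is no net growth.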

Key:
Assay in all cases: NCI anticancer screen, dose series, 384-well format
[1] = system: 786-0 renal
[2] = system: A498 renal
[3] = system: A549 NSCLC
[4] = system: ACHN renal
[5] = system: BT-549 breast
[6] = system: CAKI-1 renal
[7] = system: COLO 205 colon
[8] = system: DU-145 prostate
[9] = system: HCC-2998 colon
[10] = system: HCT-116 colon
[11] = system: HCT-15 colon
[12] = system: HOP-62 NSCLC
[13] = system: HOP-92 NSCLC
[14] = system: HT29 colon
[15] = system: IGROV1 ovarian
[16] = system: K-562 leukemia
[17] = system: KM12 colon
[18] = system: LOX IMVI melanoma
[19] = system: M14 melanoma
[20] = system: MALME-3M melanoma
[21] = system: MCF7 breast
[22] = system: MDA-MB-231 breast
[23] = system: MDA-MB-435 melanoma
[24] = system: NCI-H226 lung
[25] = system: NCI-H23 lung
[26] = system: NCI-H460 NSCLC
[27] = system: NCI/ADR-RES ovarian
[28] = system: OVCAR-3 ovarian
[29] = system: OVCAR-4 ovarian
[30] = system: OVCAR-5 ovarian
[31] = system: OVCAR-8 ovarian
[32] = system: PC-3 prostate
[33] = system: RPMI-8226 leukemia
[34] = system: RXF 393 renal
[35] = system: SF-268 CNS
[36] = system: SF-295 CNS
[37] = system: SF-539 CNS
[38] = system: SK-MEL-2 melanoma
[39] = system: SK-MEL-28 melanoma
[40] = system: SK-MEL-5 melanoma
[41] = system: SK-OV-3 ovarian
[42] = system: SN12C renal
[43] = system: SNB-19 CNS
[44] = system: SW-620 colon
[45] = system: T-47D breast
[46] = system: TK-10 renal
[47] = system: U251 glioblastoma
[48] = system: UACC-257 melanoma
[49] = system: UACC-62 melanoma
[50] = system: UO-31 renal

For CC[C@@H]1c2c(C#N)ncn2-c2cnc(Nc3ccc(C(=O)NC4CCN(C5CCN(CC6CC6)CC5)CC4)cc3OC)nc2N1C1CCCC1, the GI50 [1] was 116 nM, the TGI [1] was 241 nM and the GI50 [2] was 123 nM. It also gave a TGI [2] of 254 nM, a GI50 [3] of 41.7 nM and a TGI [3] of 171 nM. For the same molecule, the GI50 [4] was 204 nM, the TGI [4] was 767 nM and the GI50 [5] was 54.2 nM. The TGI [5] was 228 nM, the GI50 [6] was 137 nM and the TGI [6] was 280 nM. For the same molecule, the GI50 [7] was 19.8 nM, the TGI [7] was 110 nM and the GI50 [8] was 23.9 nM. The TGI [8] was 53.8 nM, the GI50 [9] was 20.9 nM and the TGI [9] was 48.7 nM. The GI50 [10] was 21.4 nM, the TGI [10] was 107 nM and the GI50 [11] was 137 nM. The TGI [11] was 269 nM, the GI50 [12] was 28.6 nM and the TGI [12] was 76.6 nM. The GI50 [13] was 43.3 nM, the TGI [13] was 404 nM and the GI50 [14] was 22 nM. It also gave a TGI [14] of 48.8 nM, a GI50 [15] of 44.9 nM and a TGI [15] of 1660 nM. For the same molecule, the GI50 [16] was 21.1 nM, the TGI [16] was 43.8 nM and the GI50 [17] was 23.9 nM. It also gave a TGI [17] of 74.9 nM, a GI50 [18] of 28.3 nM and a TGI [18] of 59.6 nM. It also gave a GI50 [19] of 30 nM, a TGI [19] of 81.9 nM and a GI50 [20] of 134 nM. The TGI [20] was 263 nM, the GI50 [21] was 34.5 nM and the TGI [21] was 169 nM. For the same molecule, the GI50 [22] was 44.5 nM, the TGI [22] was 158 nM and the GI50 [23] was 15.7 nM. It also gave a TGI [23] of 38.6 nM, a GI50 [24] of 175 nM and a TGI [24] of 1310 nM. For the same molecule, the GI50 [25] was 27.5 nM, the TGI [25] was 61.4 nM and the GI50 [26] was 16.4 nM. For the same molecule, the TGI [26] was 35.1 nM, the GI50 [27] was 1110 nM and the TGI [27] was 2310 nM. The GI50 [28] was 15.7 nM, the TGI [28] was 48.4 nM and the GI50 [29] was 125 nM. It also gave a TGI [29] of 273 nM, a GI50 [30] of 53 nM and a TGI [30] of 204 nM. For the same molecule, the GI50 [31] was 21.7 nM, the TGI [31] was 41.8 nM and the GI50 [32] was 53.8 nM. For the same molecule, the TGI [32] was 302 nM, the GI50 [33] was 13.9 nM and the TGI [33] was 31.5 nM. The GI50 [34] was 19.7 nM, the TGI [34] was 43.3 nM and the GI50 [35] was 25.1 nM. The TGI [35] was 197 nM, the GI50 [36] was 75.7 nM and the TGI [36] was 1480 nM. It also gave a GI50 [37] of 36.5 nM, a TGI [37] of 106 nM and a GI50 [38] of 13.8 nM. For the same molecule, the TGI [38] was 33.9 nM, the GI50 [39] was 60.1 nM and the TGI [39] was 182 nM. It also gave a GI50 [40] of 17.2 nM, a TGI [40] of 65.6 nM and a GI50 [41] of 26.1 nM. The TGI [41] was 87.5 nM, the GI50 [42] was 103 nM and the TGI [42] was 356 nM. It also gave a GI50 [43] of 38.7 nM, a TGI [43] of 269 nM and a TGI [44] of 44.8 nM. It also gave a GI50 [45] of 117 nM, a TGI [45] of 241 nM and a GI50 [46] of 317 nM. It also gave a TGI [46] of 1740 nM, a GI50 [47] of 23.3 nM and a TGI [47] of 152 nM. The GI50 [48] was 78.5 nM, the TGI [48] was 201 nM and the GI50 [49] was 32.8 nM. It also gave a TGI [49] of 95.5 nM, a GI50 [50] of 181 nM and a TGI [50] of 322 nM.
